“And” between values parts separate entries of the source, which are not always exact repeats. Equal values may be shown once.

By viability, T/C is commonly meant the result in the treated group divided by that in the control group, in per cent. Usually IC50 stands for the concentration that gives 50% inhibition.

This test has as its system 138582-337-R-J1-PDC complex spheroid viability. In words: Anticancer human tumor 138582-337-R-J1-PDC patient-derived Merkel cell tumor cell line growth inhibition. The following applies: for viability, T/C: stronger effect = lower value. An excerpt:
Multicellular complex tumor spheroid response to LSD1 Inhibitor Iadademstat in combination with a variety of drugs and investigational agents in selected tumor cell lines
The current study was undertaken to assess response to LSD1 inhibitors in combination with standard-of-care drugs and investigational agents in solid tumor complex spheroid models as well as in the K-562 leukemia. Complex spheroids include a stromal component modeled by human endothelial cells (HUVEC) and fibroblasts modeled by human mesenchymal stem cells (MSCs). The concentration ranges selected for each drug and investigational agent were based upon clinically achievable concentrations if the clinical Cmax of the agent was known.
Compounds. The drugs and investigational agents used in this study are listed on Table 1. All of the agents used, including staurosporine (NSC755774) and gemcitabine (NSC613327), were obtained from the Developmental Therapeutics Program, NCI. FDA-approved anticancer drugs are available from the NCI at http://dtp.nci.nih.gov/branches/dscb/oncology_drugset_explanation.html. Drugs and investigational agents were >95% pure by proton nuclear magnetic resonance (NMR) and liquid chromatography/mass spectrometry (LC/MS). Stock solutions were prepared at 400x in DMSO, stored at -70 degrees C, and diluted in fresh medium prior to their use. The final concentration of DMSO in cell culture wells never exceeded 0.25% (v/v). The FDA-approved anticancer drug set is available from the Developmental Therapeutics Program at https://dtp.cancer.gov/organization/dscb/obtaining/available_plates.htm. All drugs and investigational agents were tested over a range starting from a high concentration at or near the clinical Cmax and decreasing in half-log increments. If the clinical Cmax for an agent had not been determined, the highest concentration tested was 10 microM.
Cell Lines. The patient-derived cancer cell (PDC) lines: 292921-168-R-J2-PDC, K24384-001-R-PDC, and 521955-158-R2-J5-PDC pancreatic carcinomas, 556581-035-R-J1 ovarian carcinoma, 324938-238-R-J1-PDC, 855422-203-R-J1-PDC and 883617-216-R-J1-PDC urothelial bladder carcinomas, 743489-274-T-PDC renal cell carcinoma, 138582-R-J1 Merkel cell tumor, K60290-347-R-J1 and K57222-313-R-J1-PDC glioblastomas, 653999-131-R-J2-PDC, LG0703-F948-PDC, and 349418-098-R-PDC non-small cell lung carcinomas, 885512-296-R-J2-PDC, 171881-019-R-J1-PDC breast carcinomas and 186277-243-T-J2-PDC and 233499-124-R-J2-PDC colon carcinomas were obtained from the NCI Patient-Derived Models Repository (PDMR, https://pdmr.cancer.gov). The established cell lines NCI/ADR-RES (RRID:CVCL_14520 and OVCAR-5 (RRID:CVCL_1628) ovarian carcinomas, 786-O (RRID:CVCL_1051) and A498 (RRID:CVCL_A498) renal cell carcinoma, NCI-H211 (ATCC, cat. CRL-5824; RRID:CVCL_1529), NCI-H196 (ATCC, cat. CRL-5823, RRID:CVCL_1509), SW 1271 (ATCC, cat. CRL-2177, RRID:CVCL_1716) and NCI-H1876 (ATCC, cat. CRL-5902, RRID:CVCL_1503) small cell lung carcinomas, MDA-MB-231 (RRID:CVCL_0062) and MDA-MB-468 (RRID:CVCL_0419)breast carcinomas (10-12). Pooled donor human umbilical vein endothelial cells (HUVEC, Lonza, cat. CC-2519) and human mesenchymal stem cells (hMSC, Lonza, cat. PT-2501) were purchased from Lonza (Walkersville, MD).
Cell Culture. All cells were maintained in an incubator at 37 degrees C and 5% CO2 with 95% humidity. The PDC lines were cultured according to standard operating procedures established by the NCI PDMR (https://pdmr.cancer.gov). Briefly all PDCs were thawed and cultured in Matrigel-coated flasks prepared with a working solution of 1X Ham's F-12 nutrient mix, without supplementation (Invitrogen, Waltham, MA, cat. 11765054), 100 U/mL penicillin-streptomycin (Invitrogen, cat. 15140122), and 2.5% Matrigel (Corning Inc., Corning, NY, cat. 354248) for the first three passages. […]

The mark [1] stands for this setting: curve of first compound, second compound 0.1 µM.
[2] abbreviates: curve of first compound, second compound 0.316 µM.
Setting [3] is: curve of first compound, second compound 1 µM.
Setting [4] is: curve of first compound, second compound 3.16 µM.
Setting [5] is: curve of first compound, second compound 10 µM.
The mark [6] stands for this setting: second compound 0.1 µM, first compound 0.0316 µM.
Setting [7] is: second compound 0.1 µM, first compound 0.1 µM.
[8] abbreviates: second compound 0.316 µM, first compound 0.0316 µM.
Where [9] appears, read: second compound 0.316 µM, first compound 0.1 µM.
Where [10] appears, read: second compound 1 µM, first compound 0.0316 µM.
Setting [11] is: second compound 1 µM, first compound 0.1 µM.
The mark [12] stands for this setting: second compound 3.16 µM, first compound 0.0316 µM.
Setting [13] is: second compound 3.16 µM, first compound 0.1 µM.
[14] abbreviates: second compound 10 µM, first compound 0.0316 µM.
[15] abbreviates: second compound 10 µM, first compound 0.1 µM.
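Also: spheroids exposed to agents for 7 days.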

Consider `Nc1ncn(C2CC(O)C(CO)O2)c(=O)n1` (stereo unspecified), for which the viability, T/C is, setting by setting: (compound 0.00316 µM) 102% and 109%; (compound 0.01 µM) 78.7% and 124%; (compound 0.0316 µM) 90% and 123%; (compound 0.1 µM) 83.7% and 111%; (compound 0.316 µM) 112% and 122%; (compound 1 µM) 112% and 91.2%. Besides, the IC50 (curve of compound) was over 1 µM.
`CC1(C)CCC(CN2CCN(c3ccc(C(=O)NS(=O)(=O)c4ccc(NCC5CCOCC5)c([N+](=O)[O-])c4)c(Oc4cnc5[nH]ccc5c4)c3)CC2)=C(c2ccc(Cl)cc2)C1` + NC1CC1c1ccc(-c2cccc(O)c2)cc1: the IC50 under setting [1] stood at 3.98 µM; the IC50 under setting [2] turned out to be 3.76 µM; the IC50 under setting [3] was found to be 4.03 µM; the IC50 under setting [4] is 3.27 µM; the IC50 under setting [5] was 3.55 µM. Also, the viability, T/C is 63.8% under setting [6]; 55.9% under setting [7]; 56.7% (second compound 0.1 µM, first compound 0.316 µM); 66.3% (second compound 0.1 µM, first compound 1 µM); 66.6% (second compound 0.1 µM, first compound 3.16 µM); 2.31% (second compound 0.1 µM, first compound 10 µM). For the same compound, the viability, T/C under setting [8] is 70.8%; the viability, T/C under setting [9] is 63%; the viability, T/C (second compound 0.316 µM, first compound 0.316 µM) is 59.4%; the viability, T/C (second compound 0.316 µM, first compound 1 µM) is 67.9%; the viability, T/C (second compound 0.316 µM, first compound 3.16 µM) is 58.1%; the viability, T/C (second compound 0.316 µM, first compound 10 µM) is 2.2%. Moreover, the viability, T/C was 69.7% under setting [10]; 64.2% under setting [11]; 78% (second compound 1 µM, first compound 0.316 µM); 64% (second compound 1 µM, first compound 1 µM); 63.5% (second compound 1 µM, first compound 3.16 µM); 1.33% (second compound 1 µM, first compound 10 µM). The viability, T/C was 62.9% under setting [12]; 68.5% under setting [13]; 57.9% (second compound 3.16 µM, first compound 0.316 µM); 65.3% (second compound 3.16 µM, first compound 1 µM); 51.6% (second compound 3.16 µM, first compound 3.16 µM); 2.03% (second compound 3.16 µM, first compound 10 µM). Besides, the viability, T/C by setting is: under setting [14], 62.3%; under setting [15], 69.8%; (second compound 10 µM, first compound 0.316 µM) 72.9%; (second compound 10 µM, first compound 1 µM) 70.4%; (second compound 10 µM, first compound 3.16 µM) 55.6%; (second compound 10 µM, first compound 10 µM) 1.17%.
As for `Nc1ncn(C2CC(O)C(CO)S2)c(=O)n1` (stereo unspecified), the viability, T/C is 96.8% and 93.8% (compound 0.000949 µM); 82.8% and 110% (compound 0.003 µM); 87.8% and 94.3% (compound 0.00949 µM); 94.6% and 92.3% (compound 0.03 µM); 91.3% and 93.4% (compound 0.0949 µM); 80.5% and 74.7% (compound 0.3 µM). In addition, for the setting “curve of compound”, the IC50 is over 0.3 µM.
Take `CC[C@@]1(O)C(=O)OCc2c1cc1n(c2=O)Cc2cc3c(CN(C)C)c(O)ccc3nc2-1` + NC1CCC(NC2CC2c2ccccc2)CC1: the IC50 was over 0.1 µM under setting [1]; over 0.1 µM under setting [2]; over 0.1 µM under setting [3]; over 0.1 µM under setting [4]; over 0.1 µM under setting [5]. For the same compound, the viability, T/C (second compound 0.1 µM, first compound 0.000316 µM) is 91%; the viability, T/C (second compound 0.1 µM, first compound 0.001 µM) was 99.7%; the viability, T/C (second compound 0.1 µM, first compound 0.00316 µM) is 105%; the viability, T/C (second compound 0.1 µM, first compound 0.01 µM) is 101%; the viability, T/C under setting [6] was 98.9%; the viability, T/C under setting [7] is 114%. The viability, T/C is, setting by setting: (second compound 0.316 µM, first compound 0.000316 µM) 101%; (second compound 0.316 µM, first compound 0.001 µM) 96.8%; (second compound 0.316 µM, first compound 0.00316 µM) 120%; (second compound 0.316 µM, first compound 0.01 µM) 102%; under setting [8], 95.7%; under setting [9], 92.2%. Besides, the viability, T/C reads like this: (second compound 1 µM, first compound 0.000316 µM) 92%; (second compound 1 µM, first compound 0.001 µM) 101%; (second compound 1 µM, first compound 0.00316 µM) 115%; (second compound 1 µM, first compound 0.01 µM) 95.6%; under setting [10], 105%; under setting [11], 107%. Also, the viability, T/C is, setting by setting: (second compound 3.16 µM, first compound 0.000316 µM) 91.2%; (second compound 3.16 µM, first compound 0.001 µM) 96.6%; (second compound 3.16 µM, first compound 0.00316 µM) 104%; (second compound 3.16 µM, first compound 0.01 µM) 106%; under setting [12], 93.4%; under setting [13], 105%. Moreover, the viability, T/C (second compound 10 µM, first compound 0.000316 µM) was 95.4%; the viability, T/C (second compound 10 µM, first compound 0.001 µM) was 91.6%; the viability, T/C (second compound 10 µM, first compound 0.00316 µM) was 86.8%; the viability, T/C (second compound 10 µM, first compound 0.01 µM) was 87.3%; the viability, T/C under setting [14] was 91.2%; the viability, T/C under setting [15] is 70.7%.
In the case of `COc1cc(Nc2ncc3c(n2)-c2ccc(Cl)cc2C(c2c(F)cccc2OC)=NC3)ccc1C(=O)O`, the viability, T/C is 102% and 63.7% (compound 0.00316 µM); 82.4% and 67.3% (compound 0.01 µM); 76.8% and 63.6% (compound 0.0316 µM); 84.4% and 66.4% (compound 0.1 µM); 79.4% and 61.6% (compound 0.316 µM); 80.4% and 43.7% (compound 1 µM). The IC50 (curve of compound) is over 1 µM.
